Experimental data as given in patent US4296112A, “Cephalosporins” (Mitsui Toatsu Chemicals, Inc., priority 1979, dated 1981).
≈ marks a conversion by molar mass, not a printed value. Like-named read-outs stand apart in the source and are kept apart here.

Assays:
[1] = system: Bacillus cereus (IAM 1792); assay: MIC, agar plate dilution (Referential Example 1, Table 1); format: cell-based; conditions: IAM1792, HIA medium plate, 37° C., 18 hours, read-out: Minimum growth inhibitory concentration (MIC)
Method: (§1) The antibacterial activities of the cephalosporins of this invention were measured using the sodium salts of the compounds obtained in Synthesis Examples 1 and 2. The procedure and the results are shown in Referential Example 1.
(§2) Carbenicillin sodium salt (CB-PC) and cephazoline sodum salt (CEZ) were used as controls.
(§3) The antibacterial activities of the test compounds against various Gram-positive and Gram-negative bacteria were determined in a customary manner by the minimum growth inhibitory concentration method (MIC method).
(§4) The experimental procedure was as follows:
(§5) A commercially available heart infusion agar medium (to be abbreviated HIA medium) was used as an assay medium, and a commercially available trypto-soy bouillon medium (to be abbreviated TSB) was used as a medium for the growth of test bacterial strains.
(§6) The test compound was diluted with the melted HIA medium to 100 μg/ml as a maximum concentration, and then serially diluted double. The dilutions were poured into sterilized Petri dishes respectively and allowed to cool and solidify to prepare plates containing the test compound.
(§7) The test bacterial strain was cultivated at 37° C. for 18 to 24 hours in the TSB medium. The culture broth was diluted to 50 to 500 times with a freshly prepared TSB culture medium, and one platinum loopful of the dilution was inoculated in each of the plates containing the test compound.

[2] = system: Enterobacter aerogenes (IFO 3320); assay: as above; format: cell-based; conditions: Klebsiella aerogenes, IFO3320, 18 h, read-out: Minimum growth inhibitory concentration (MIC)
Method: as §1, §2, §3, §4, §5, §6, §7

Escherichia coli (K-12) = assay: as above; format: cell-based; conditions: 18 h, read-out: Minimum growth inhibitory concentration (MIC)
Method: as §1, §2, §3, §4, §5, §6, §7

Escherichia coli (NIHJ) = assay: as above; format: cell-based; conditions: 18 h, read-out: Minimum growth inhibitory concentration (MIC)
Method: as §1, §2, §3, §4, §5, §6, §7

[3] = system: Klebsiella pneumoniae (Horino); assay: as above; format: cell-based; conditions: HIA medium plate, 37° C., 18 hours, read-out: Minimum growth inhibitory concentration (MIC)
Method: as §1, §2, §3, §4, §5, §6, §7

[4] = system: Pseudomonas aeruginosa (395); assay: as above; format: cell-based; conditions: read-out: Minimum growth inhibitory concentration (MIC)
Method: as §1, §2, §3, §4, §5, §6, §7

[5] = system: Pseudomonas aeruginosa (718); assay: as above; format: cell-based; conditions: HIA medium plate, 37° C., 18 hours, read-out: Minimum growth inhibitory concentration (MIC)
Method: as §1, §2, §3, §4, §5, §6, §7

[6] = system: Pseudomonas aeruginosa (ATCC 10145); assay: as above; format: cell-based; conditions: ATCC10145, HIA medium plate, 37° C., 18 hours, read-out: Minimum growth inhibitory concentration (MIC)
Method: as §1, §2, §3, §4, §5, §6, §7

[7] = system: Pseudomonas aeruginosa (F1629); assay: as above; format: cell-based; conditions: HIA medium plate, 37° C., 18 hours, read-out: Minimum growth inhibitory concentration (MIC)
Method: as §1, §2, §3, §4, §5, §6, §7

[8] = system: Pseudomonas aeruginosa (IFO-3901); assay: as above; format: cell-based; conditions: IFO3901, HIA medium plate, 37° C., 18 hours, read-out: Minimum growth inhibitory concentration (MIC)
Method: as §1, §2, §3, §4, §5, §6, §7

[9] = system: Pseudomonas aeruginosa (NCTC 7244); assay: as above; format: cell-based; conditions: NCTC7244, HIA medium plate, 37° C., 18 hours, read-out: Minimum growth inhibitory concentration (MIC)
Method: as §1, §2, §3, §4, §5, §6, §7

[10] = system: Pseudomonas aeruginosa (S-1); assay: as above; format: cell-based; conditions: HIA medium plate, 37° C., 18 hours, read-out: Minimum growth inhibitory concentration (MIC)
Method: as §1, §2, §3, §4, §5, §6, §7

[11] = system: Serratia marcescens (S-33); assay: as above; format: cell-based; conditions: HIA medium plate, 37° C., 18 hours, read-out: Minimum growth inhibitory concentration (MIC)
Method: as §1, §2, §3, §4, §5, §6, §7

Shigella flexneri (K-A) = assay: as above; format: cell-based; conditions: HIA medium plate, 37° C., 18 hours, read-out: Minimum growth inhibitory concentration (MIC)
Method: as §1, §2, §3, §4, §5, §6, §7

[12] = system: Staphylococcus aureus (FDA 209P); assay: as above; format: cell-based; conditions: FDA209P, 18 h, read-out: Minimum growth inhibitory concentration (MIC)
Method: as §1, §2, §3, §4, §5, §6, §7

[13] = system: Staphylococcus aureus (Y-8); assay: as above; format: cell-based; conditions: HIA medium plate, 37° C., 18 hours, read-out: Minimum growth inhibitory concentration (MIC)
Method: as §1, §2, §3, §4, §5, §6, §7

[14] = system: Streptococcus faecalis (Hoshi); assay: as above; format: cell-based; conditions: Enterococcus faecalis; HIA medium plate, 37° C., 18 hours; read-out: Minimum growth inhibitory concentration (MIC)
Method: as §1, §2, §3, §4, §5, §6, §7

[15] = system: Pseudomonas aeruginosa (NCTC 7244); assay: MIC in HIB medium by turbidity (Referential Example 2, Table 2); format: cell-based; conditions: NCTC7244, 18 h, 37° C.
Method: (§8) The compounds obtained in Synthesis Examples 1 to 4 were tested in the following manner.
(§9) A suspension of Pseudomonas aeruginosa (NCTC 7244) cultivated at 37° C. for 18 hours in a heart infusion broth medium (HIB medium) in a final amount of 10^5, 10^6 and 10^7 cells/ml in an HIB medium containing each of the test compounds which was obtained in the same way as in Referential Example 1 except that the maximum concentration of the test compound was 200 μg/ml. The bacterial strain was cultivated at 37° C. for 18 hours, and the turbidity of the culture broth was evaluated with the naked eye. The minimum concentration of the test compound at which no turbidity was noted was defined as MIC.

[16] = system: Pseudomonas aeruginosa (NCTC 7244); assay: Minimum bactericidal concentration (Referential Example 2, Table 2); format: cell-based; conditions: NCTC7244, 18 h, subculture on HIA medium
Method: as §8, §9
The growth of the bacterial strain was evaluated.

[17] = Blood level in rats after intramuscular administration (Experimental Example 1, Table 3); format: in vivo; conditions: rat, im, 20 mg/kg i.m., serum, read-out: Blood level after administration (average value ± standard deviation); for concentration at 0.25 h: 15 minutes; for concentration at 0.5 h: 30 minutes; for concentration at 1 h: 60 minutes; for concentration at 2 h: 120 minutes
Method: The compounds of this invention prepared in Synthesis Examples 1 and 2 were each administered intramuscularly to rats, and the concentrations of the compounds in the blood were determined.
Each of the test compounds was intramuscularly injected into the femoral part of rats in a customary manner in a dose of 20 mg/kg for each rat. The blood was drawn by incising the cervical artery and vein at the end of 15 minutes, 30 minutes, 60 minutes, 120 minutes, and 240 minutes after the injection. The separated sera were used for the measurement of the blood level of the test compounds. The concentrations of the test compounds in the sera were determined by a thin-layer cup method using Micrococcus luteus ATCC 9341 as an assay microorganism.

[18] = Acute toxicity (LD50) in mice, intravenous (Experimental Example 2); conditions: mouse, in vivo; ICR male mice, intravenous (tail), two weeks observation; estimated; read-out: 50% lethal dose (LD50)
Method: Each of the compounds was administered intravenously to the tail of each mouse in a customary manner in a dose of 500 mg/kg and 1000 mg/kg, and over two weeks from then, the states of the mice were observed. It was consequently estimated that the LD50 values of each of these compounds was at least 1000 mg/kg.

Row | SMILES | MIC [1] | MIC [2] | MIC (Escherichia coli (K-12)) | MIC (Escherichia coli (NIHJ)) | MIC [3] | MIC [5] | MIC [6] | MIC [7] | MIC [8] | MIC [9] | MIC [10] | MIC [11] | MIC (Shigella flexneri (K-A)) | MIC [12] | MIC [13] | MIC [14] | MIC ([15]; 10^5 cells/ml inoculated) | MIC ([15]; 10^6 cells/ml inoculated) | MIC ([15]; 10^7 cells/ml inoculated) | MBC ([16]; 10^5 cells/ml inoculated) | other results
1 | Cc1nnc(SCC2=C(C(=O)O)N3C(=O)C(NC(=O)[C@H](NC(=O)c4cnc5c(c4O)C(=O)CCC5)c4ccc(O)cc4)C3SC2)s1 (single isomer, unassigned) [Synthesis Example 2] | 12.5 µg/mL (≈ 18.3 µM) | 0.39 µg/mL (≈ 0.571 µM) | 0.39 µg/mL (≈ 0.571 µM) | 0.78 µg/mL (≈ 1.14 µM) | 1.56 µg/mL (≈ 2.28 µM) | 12.5 µg/mL (≈ 18.3 µM) | 12.5 µg/mL (≈ 18.3 µM) | 6.25 µg/mL (≈ 9.15 µM) | 6.25 µg/mL (≈ 9.15 µM) | 12.5 µg/mL (≈ 18.3 µM) | 1.56 µg/mL (≈ 2.28 µM) | 12.5 µg/mL (≈ 18.3 µM) | 0.2 µg/mL (≈ 0.293 µM) | 0.78 µg/mL (≈ 1.14 µM) | 3.13 µg/mL (≈ 4.58 µM) | 12.5 µg/mL (≈ 18.3 µM) | 12.5 µg/mL (≈ 18.3 µM) | 12.5 µg/mL (≈ 18.3 µM) | > 200 µg/mL | 12.5 µg/mL (≈ 18.3 µM) | MIC ([4]; HIA medium plate, 37° C., 18 hours): 3.13 µg/mL (≈ 4.58 µM); MBC ([16]; 10^6 cells/ml inoculated): 12.5 µg/mL (≈ 18.3 µM); MBC ([16]; 10^7 cells/ml inoculated): > 200 µg/mL; concentration at 0.25 h [17]: 22800 ± 2600 ng/mL; concentration at 0.5 h [17]: 16100 ± 3000 ng/mL; concentration at 1 h [17]: 7600 ± 1800 ng/mL; concentration at 2 h [17]: 2500 ± 1200 ng/mL; LD50 at 336 h [18]: ≥ 1000 mg/kg
2 | CC(=O)OCC1=C(C(=O)O)N2C(=O)C(NC(=O)[C@H](NC(=O)c3cnc4c(c3O)C(=O)CCC4)c3ccc(O)cc3)C2SC1 (single isomer, unassigned) [Synthesis Example 1, 7-[D-(-)-α-(4-hydroxy-5-oxo-5,6,7,8-tetrahydroquinoline-3-carboxamide)-α-(4-hydroxyphenyl)acetamido]-3-acetoxymethyl-Δ^3-cephem-4-carboxylic acid] | 25 µg/mL (≈ 40.9 µM) | 0.39 µg/mL (≈ 0.639 µM) | 1.56 µg/mL (≈ 2.55 µM) | 1.56 µg/mL (≈ 2.55 µM) | 3.13 µg/mL (≈ 5.13 µM) | 12.5 µg/mL (≈ 20.5 µM) | 12.5 µg/mL (≈ 20.5 µM) | 12.5 µg/mL (≈ 20.5 µM) | 12.5 µg/mL (≈ 20.5 µM) | 12.5 µg/mL (≈ 20.5 µM) | 3.13 µg/mL (≈ 5.13 µM) | 25 µg/mL (≈ 40.9 µM) | 0.39 µg/mL (≈ 0.639 µM) | 1.56 µg/mL (≈ 2.55 µM) | 3.13 µg/mL (≈ 5.13 µM) | 25 µg/mL (≈ 40.9 µM) | 12.5 µg/mL (≈ 20.5 µM) | 12.5 µg/mL (≈ 20.5 µM) | 25 µg/mL (≈ 40.9 µM) | 12.5 µg/mL (≈ 20.5 µM) | MIC ([4]; 18 h): 1.56 µg/mL (≈ 2.55 µM); MBC ([16]; 10^6 cells/ml inoculated): 25 µg/mL (≈ 40.9 µM); MBC ([16]; 10^7 cells/ml inoculated): > 200 µg/mL; concentration at 0.25 h [17]: 14000 ± 2200 ng/mL; concentration at 0.5 h [17]: 9800 ± 3100 ng/mL; concentration at 1 h [17]: 6800 ± 2200 ng/mL; concentration at 2 h [17]: 2200 ± 1000 ng/mL; LD50 at 336 h [18]: ≥ 1000 mg/kg
